Counter-ions that a name gives are not always drawn. Non-standard residues stand in square brackets, D forms with d. Residues, ends and D or L forms follow the SMILES beside them. Dopa = N[C@@H](Cc1ccc(O)c(O)c1)C(=O)O

A short description of the data set: Human blood stability test. More on the design: key: slope of % decrease of remaining compound over time; higher = faster metabolism. The data set is classed as in vitro ADME. To be noted: slope of the percentage decrease of remaining compound; substrate 10 μM; 0-60 minutes. On the procedure:
The stability of several LDAA compounds in human blood was tested. The substrate concentration was 10 μM and the incubation time 0, 5, 15, 30 and 60 minutes.
The results are described in Table 19, wherein the results describe the Ke, i.e., the slope of the percentage decrease of the remaining amount of the compound, measured at each of the above time points, such that the higher the Ke the faster the metabolism.

Take `N[C@@H](Cc1ccc(O)c(O)c1)C(=O)N[C@@H](CC(=O)O)C(=O)O` [LD-Asp TFA salt, Levodopa Aspartic Acid] (H-[Dopa]-Asp-OH): the Ke is given as 0.0014.

Source of the values: US20220362386A1, “LIQUID COMPOSITIONS COMPRISING A LEVODOPA AMINO ACID CONJUGATE AND USES THEREOF” (NeuroDerm, Ltd., priority 2019, published 2022).
